Source: ChEMBL document CHEMBL5303573, “Mapping human microbiome drug metabolism by gut bacteria and their genes” (Nature, 2019)
Non-standard residues stand in square brackets, D forms with d. Residues, ends and D or L forms follow the SMILES beside them. pGlu = O=C1CC[C@@H](C(=O)O)N1; Thz = O=C(O)[C@@H]1CSCN1

Key:
[1] = The drug is tested on Collinsella intestinalis strain: DSM13280 for biotransformation. The drug concentrations were measured before and after a 12-h incubation by liquid-chromatography-coupled mass spectrometry (LC–MS); conditions: 2 µM
[2] = The drug is tested on Alistipes indistinctus strain: DSM22520 for biotransformation. The drug concentrations were measured before and after a 12-h incubation by liquid-chromatography-coupled mass spectrometry (LC–MS); conditions: 2 µM
[3] = The drug is tested on Bacteroides dorei strain: DSM17855 for biotransformation. The drug concentrations were measured before and after a 12-h incubation by liquid-chromatography-coupled mass spectrometry (LC–MS); conditions: phocaeicola dorei, 2 µM
[4] = The drug is tested on Bacteroides finegoldii strain: DSM17565 for biotransformation. The drug concentrations were measured before and after a 12-h incubation by liquid-chromatography-coupled mass spectrometry (LC–MS); conditions: 2 µM
[5] = The drug is tested on Bacteroides fragilis strain: HMW615 for biotransformation. The drug concentrations were measured before and after a 12-h incubation by liquid-chromatography-coupled mass spectrometry (LC–MS); conditions: 2 µM
[6] = The drug is tested on Odoribacter splanchnicus strain: fecal isolate for biotransformation. The drug concentrations were measured before and after a 12-h incubation by liquid-chromatography-coupled mass spectrometry (LC–MS); conditions: 2 µM
[7] = The drug is tested on Anaerococcus hydrogenalis strain: DSM7454 for biotransformation. The drug concentrations were measured before and after a 12-h incubation by liquid-chromatography-coupled mass spectrometry (LC–MS); conditions: 2 µM
[8] = The drug is tested on Blautia hansenii strain: DSM20583 for biotransformation. The drug concentrations were measured before and after a 12-h incubation by liquid-chromatography-coupled mass spectrometry (LC–MS); conditions: 2 µM
[9] = The drug is tested on Clostridium ramosum strain: DSM1402 for biotransformation. The drug concentrations were measured before and after a 12-h incubation by liquid-chromatography-coupled mass spectrometry (LC–MS); conditions: thomasclavelia ramosa, 2 µM
[10] = The drug is tested on Clostridium scindens strain: ATCC35704 for biotransformation. The drug concentrations were measured before and after a 12-h incubation by liquid-chromatography-coupled mass spectrometry (LC–MS); conditions: 2 µM
[11] = The drug is tested on Edwardsiella tarda strain: ATCC23685 for biotransformation. The drug concentrations were measured before and after a 12-h incubation by liquid-chromatography-coupled mass spectrometry (LC–MS); conditions: 2 µM
[12] = The drug is tested on Escherichia coli strain: BW25113 for biotransformation. The drug concentrations were measured before and after a 12-h incubation by liquid-chromatography-coupled mass spectrometry (LC–MS); conditions: 2 µM
[13] = bacteroides stercoris, 12 h, 2 µM
Description: The drug is tested on Bacteroides stercoris strain: ATCC43183 for biotransformation. The drug concentrations were measured before and after a 12-h incubation by liquid-chromatography-coupled mass spectrometry (LC–MS)

[14] = bacteroides thetaiotaomicron, 12 h, 2 µM
Description: The drug is tested on Bacteroides thetaiotaomicron strain: 3731 for biotransformation. The drug concentrations were measured before and after a 12-h incubation by liquid-chromatography-coupled mass spectrometry (LC–MS)

[15] = akkermansia muciniphila, 12 h, 2 µM
Description: The drug is tested on Akkermansia muciniphila strain: ATCC BAA-835 for biotransformation. The drug concentrations were measured before and after a 12-h incubation by liquid-chromatography-coupled mass spectrometry (LC–MS)

[16] = The drug is tested on Collinsella aerofaciens strain: ATCC25986 for biotransformation. The drug concentrations were measured before and after a 12-h incubation by liquid-chromatography-coupled mass spectrometry (LC–MS); conditions: 2 µM
[17] = The drug is tested on Bacteroides uniformis strain: ATCC8492 for biotransformation. The drug concentrations were measured before and after a 12-h incubation by liquid-chromatography-coupled mass spectrometry (LC–MS); conditions: 2 µM
[18] = The drug is tested on Bacteroides vulgatus strain: ATCC8482 for biotransformation. The drug concentrations were measured before and after a 12-h incubation by liquid-chromatography-coupled mass spectrometry (LC–MS); conditions: phocaeicola vulgatus, 2 µM
[19] = The drug is tested on Clostridium sporogenes strain: ATCC15579 for biotransformation. The drug concentrations were measured before and after a 12-h incubation by liquid-chromatography-coupled mass spectrometry (LC–MS); conditions: 2 µM
[20] = The drug is tested on Eubacterium hallii strain: DSM3353 for biotransformation. The drug concentrations were measured before and after a 12-h incubation by liquid-chromatography-coupled mass spectrometry (LC–MS); conditions: anaerobutyricum hallii, 2 µM

SMILES | Bacterial Biotransformation [1] | Bacterial Biotransformation [2] | Bacterial Biotransformation [3] | Bacterial Biotransformation [4] | Bacterial Biotransformation [5] | Bacterial Biotransformation [6] | Bacterial Biotransformation [7] | Bacterial Biotransformation [8] | Bacterial Biotransformation [9] | Bacterial Biotransformation [10] | Bacterial Biotransformation [11] | Bacterial Biotransformation [12] | Bacterial Biotransformation [13] | Bacterial Biotransformation [14] | Bacterial Biotransformation [15] | Bacterial Biotransformation [16] | Bacterial Biotransformation [17] | Bacterial Biotransformation [18] | Bacterial Biotransformation [19] | Bacterial Biotransformation [20]
CC(=O)OCC(=O)[C@@]1(O)[C@@H](C)C[C@H]2[C@@H]3CCC4=CC(=O)C=C[C@]4(C)[C@@]3(F)[C@@H](O)C[C@@]21C [BETAMETHASONE ACETATE] | Compound NOT metabolized | Compound NOT metabolized | Compound metabolized | Compound NOT metabolized | Compound metabolized | Compound metabolized | Compound NOT metabolized | Compound metabolized | Compound NOT metabolized | Compound NOT metabolized | Compound NOT metabolized | Compound NOT metabolized | Compound metabolized | Compound NOT metabolized | Compound NOT metabolized |  |  |  |  | 
CC(C)(C)N.CCC[C@H](N[C@@H](C)C(=O)N1[C@H](C(=O)O)C[C@@H]2CCCC[C@@H]21)C(=O)OCC [PERINDOPRIL ERBUMINE] | Compound NOT metabolized | Compound NOT metabolized | Compound NOT metabolized | Compound NOT metabolized |  | Compound NOT metabolized | Compound NOT metabolized | Compound NOT metabolized | Compound NOT metabolized | Compound NOT metabolized | Compound NOT metabolized | Compound NOT metabolized |  |  | Compound NOT metabolized | Compound NOT metabolized | Compound NOT metabolized | Compound NOT metabolized | Compound NOT metabolized | Compound NOT metabolized
O=C1CC[C@@H](C(=O)N2CSC[C@H]2C(=O)O)N1 [PIDOTIMOD] ([pGlu]-[Thz]-OH) | Compound NOT metabolized | Compound NOT metabolized | Compound metabolized |  | Compound metabolized | Compound NOT metabolized | Compound NOT metabolized | Compound metabolized | Compound NOT metabolized | Compound NOT metabolized | Compound NOT metabolized | Compound NOT metabolized | Compound metabolized |  | Compound NOT metabolized | Compound NOT metabolized | Compound metabolized | Compound NOT metabolized |  | Compound NOT metabolized
O=C([O-])C[C@H](O)C[C@H](O)/C=C/c1c(C2CC2)nc2ccccc2c1-c1ccc(F)cc1.O=C([O-])C[C@H](O)C[C@H](O)/C=C/c1c(C2CC2)nc2ccccc2c1-c1ccc(F)cc1.[Ca+2] [PITAVASTATIN CALCIUM] | Compound NOT metabolized | Compound NOT metabolized | Compound NOT metabolized |  | Compound NOT metabolized | Compound NOT metabolized | Compound NOT metabolized | Compound NOT metabolized | Compound NOT metabolized | Compound NOT metabolized | Compound NOT metabolized | Compound NOT metabolized | Compound NOT metabolized | Compound NOT metabolized | Compound NOT metabolized | Compound NOT metabolized | Compound NOT metabolized | Compound NOT metabolized |  | Compound NOT metabolized
CC(C)c1nc(CN(C)C(=O)N[C@H](C(=O)N[C@@H](Cc2ccccc2)C[C@H](O)[C@H](Cc2ccccc2)NC(=O)OCc2cncs2)C(C)C)cs1 [RITONAVIR] | Compound NOT metabolized | Compound NOT metabolized | Compound metabolized | Compound NOT metabolized |  | Compound metabolized | Compound NOT metabolized | Compound metabolized | Compound NOT metabolized | Compound NOT metabolized | Compound NOT metabolized | Compound metabolized | Compound NOT metabolized | Compound NOT metabolized | Compound NOT metabolized | Compound NOT metabolized | Compound metabolized | Compound metabolized | Compound NOT metabolized | Compound NOT metabolized
O=C(CCCN1CCC2(CC1)C(=O)NCN2c1ccccc1)c1ccc(F)cc1 [SPIPERONE] | Compound NOT metabolized | Compound NOT metabolized | Compound NOT metabolized | Compound NOT metabolized | Compound NOT metabolized |  | Compound NOT metabolized | Compound NOT metabolized | Compound NOT metabolized | Compound NOT metabolized | Compound NOT metabolized | Compound NOT metabolized | Compound NOT metabolized | Compound NOT metabolized | Compound NOT metabolized | Compound NOT metabolized | Compound NOT metabolized |  |  | Compound NOT metabolized
CNS(=O)(=O)Cc1ccc2[nH]cc(CCN(C)C)c2c1.O=C(O)CCC(=O)O [SUMATRIPTAN SUCCINATE] | Compound NOT metabolized | Compound NOT metabolized |  | Compound NOT metabolized |  | Compound NOT metabolized | Compound NOT metabolized | Compound NOT metabolized | Compound NOT metabolized | Compound NOT metabolized | Compound NOT metabolized | Compound NOT metabolized |  |  | Compound NOT metabolized | Compound NOT metabolized |  | Compound NOT metabolized | Compound NOT metabolized | Compound NOT metabolized
Cc1ccc(S(=O)(=O)NC(=O)NN2CCCCCC2)cc1 [TOLAZAMIDE] | Compound NOT metabolized | Compound NOT metabolized | Compound metabolized |  | Compound metabolized | Compound metabolized | Compound NOT metabolized | Compound metabolized | Compound NOT metabolized | Compound NOT metabolized | Compound NOT metabolized | Compound NOT metabolized | Compound metabolized | Compound metabolized |  |  | Compound metabolized | Compound metabolized |  | Compound metabolized
